Assay results: patent US20020016299A1, “APOPTOSIS INDUCERS” (priority 1996, published 2002)
*1 amine or outer side, *2 acyl side, *3 side chain or, on linkers, in order; H or OH if unused. Where a SMILES comes first, the peptide text is derived from it. Bridges are numbered along the chain shown (N, C = ends). Roman numbers before positions name the chains, in order. [ ]: non-standard residue; d: D form. Actinocin(9to1) = Cc1c2oc3c(C)ccc(C(=O)[*:1])c3nc-2c(C(=O)[*:2])c(N)c1=O; NMeV = CN[C@H](C(=O)O)C(C)C; Sar = CNCC(=O)O

Tested on: HL-60 (ATCC CL-240)
Assay: Apoptosis inducing activity: microscope observation and living cell count of HL-60 culture
Assay type: cell-based
Conditions: HL-60 cells; for activity of suppressing the growth of cancer cells: method of Example 1-(4)
Procedure: Apoptosis inducing activity of the above fraction B and the pure product mentioned in Example 1-(3) was measured as follows. Thus, 0.5 ml of aqueous solution of the fraction B or of said pure product was added to 2.5×10^5 cells/4.5 ml of HL-60 (ATCC CL-240) cultured in an RPMI 1640 medium containing 10% of fetal calf serum and incubated at 37° C. for 48 hours. At the same time, distilled water and an Actinomycin D solution (10 μg/ml) which was known to have an apoptosis inducing activity were added to prepare control samples. Formation of apoptic bodies, contraction of cells and aggregation of nuclei were observed by naked eye under a microscope whereby the living cell numbers were counted. When such phenomena were observed and a reduction in living cell numbers was recognized, it was decided that an apoptosis inducing activity was positive.
Each of the concentrated extracts of Lyophyllum ulmarium was diluted with a 75% or 50% aqueous solution of ethanol. The diluted solution was assayed by an MTT method mentioned in Example 7. […] Thus, it was confirmed that, under the conditions of extracting with a 75% aqueous solution of ethanol and a 50% aqueous solution of ethanol, substances which are active for suppressing the growth of cancer cells were extracted. Further, an apoptosis inducing activity was measured using those concentrated extracts of Lyophyllum ulmarium. Thus, 25 μl of each of the above-mentioned concentrated extracts was used as a sample, ethanol was evaporated therefrom, the residue was added to 2.5×10^5 HL-60 cells/4.5 ml which were incubated in an RPMI 1640 medium containing 10% of fetal calf serum and incubation was conducted at 37° C. for 48 hours. At the same time, control samples were prepared by adding distilled water and an Actinomycin D solution (10 μg/ml) which was known to have an apoptosis inducing activity. Formation of apoptic bodies, contraction of cells and aggregation of nuclei were observed by naked eye under an optical microscope and the numbers of living cells were counted. When such a phenomenon was observed and a reduction in living cell numbers was noted, the sample was judged to have an apoptosis inducing activity.

[1] = 37° C., 48 hours, apoptic bodies, contraction of cells, aggregation of nuclei and reduction in living cell numbers

| Compound | apoptosis inducing activity (Actinomycin D solution (10 μg/ml) added as control sample) | activity of suppressing the growth of cancer cells (37° C., 48 hours) | apoptosis inducing activity [1] |
| --- | --- | --- | --- |
| Cc1c2oc3c(C)ccc(C(=O)N[C@@H]4C(=O)N[C@H](C(C)C)C(=O)N5CCC[C@H]5C(=O)N(C)CC(=O)N(C)[C@@H](C(C)C)C(=O)O[C@@H]4C)c3nc-2c(C(=O)N[C@@H]2C(=O)N[C@H](C(C)C)C(=O)N3CCC[C@H]3C(=O)N(C)CC(=O)N(C)[C@@H](C(C)C)C(=O)O[C@@H]2C)c(N)c1=O [Actinomycin D, reference compound] (I: T[dV]P[Sar][NMeV] / II: T[dV]P[Sar][NMeV]; ester I:1-I:C, II:1-II:C; linker I:N-II:N via Actinocin(9to1)) | apoptosis inducing activity was confirmed | – | – |
| Monogalactosyl diglyceride | – | confirmed | strong apoptosis inducing action |
| digalactosyl diglyceride | – | confirmed | strong apoptosis inducing action |
| monogalactosyl diglyceride | – | confirmed | strong apoptosis inducing action |
